The nature of data set [1]: on-resin Ugi-4CR macrocyclisation (stapling), Lys side-chain amine (i) to Asp/Glu side-chain acid (i+4): 1) paraformaldehyde 4 eq, pyrrolidine 4 eq, THF/MeOH 1:1, 30 min (imine); 2) isocyanide R-NC 4 eq, DCM/TFE 1:1, overnight; then TFA/TIS/H2O cleavage. The following applies: the molecule shown is the open-chain precursor, 18.0 h, 3 steps.
In data set [2] the test system is Septoria tritici Desm.
In data set [3] the test system is Botrytis cinerea Pers.
Data set [4] deals with Phytophthora infestans (Mont.) de Bary.
The mark [5] stands for this setting: read-out: IC50 in μM, Phythophtora Infestants, Figures 1B and 2C, 96-well plate, OD 405 nm seven days after inoculation, triplicate, IC50 from dose-response curves by linear regression.
[6] abbreviates: read-out: Half maximal inhibitory concentration, Septoria Tritici.
Setting [7] is: read-out: Half maximal inhibitory concentration, Botrytis Cinerea.
Setting [8] is: read-out: Half maximal inhibitory concentration, Phytophthora Infestans.

“And” between values parts separate entries of the source, which are not always exact repeats. Identical values can stand only once. Like-named read-outs stand apart in the source and are kept apart here. Positions of bridges follow the written chain, without caps; N, C: chain ends. Residues, ends and D or L forms follow the SMILES beside them.

As for `C=NCCCC[C@H](NC(=O)[C@H](C)NC(=O)[C@H](CCCCNC(=O)OC(C)(C)C)NC(=O)[C@H](CC(C)C)NC(=O)[C@H](CC(C)C)NC(=O)[C@H](CCCCNC(=O)OC(C)(C)C)NC(=O)[C@H](C)NC(=O)[C@H](CC(C)C)NC(C)=O)C(=O)N[C@@H](C)C(=O)N[C@@H](CCCCNC(=O)OC(C)(C)C)C(=O)N[C@@H](C)C(=O)N[C@@H](CC(=O)O)C(N)=O`, the ring closure, conversion by HPLC (% crude UHPLC purity after cleavage) in data set [1] (20-membered ring) is 63 and 54.
In the case of `C=NCCCC[C@H](NC(=O)[C@H](CCCCNC(=O)OC(C)(C)C)NC(=O)[C@H](CC(C)C)NC(C)=O)C(=O)N[C@@H](CC(C)C)C(=O)N[C@@H](CC(C)C)C(=O)N[C@@H](CCCCNC(=O)OC(C)(C)C)C(=O)N[C@@H](CCC(=O)O)C(=O)N[C@@H](CC(C)C)C(=O)N[C@@H](CC(C)C)C(=O)N[C@@H](CCCCNC(=O)OC(C)(C)C)C(=O)N[C@@H](CCCCNC(=O)OC(C)(C)C)C(=O)N[C@@H](CC(C)C)C(N)=O`, the ring closure, conversion by HPLC (% crude UHPLC purity after cleavage) in data set [1] (21-membered ring) is 68.
In the case of `CC(=O)N[C@@H](CC(C)C)C(=O)N[C@@H](CCCCN)C(=O)N[C@@H](CCCCN)C(=O)N[C@@H](CC(C)C)C(=O)N[C@@H](CC(C)C)C(=O)N[C@@H](CCCCN)C(=O)N[C@@H](CCCCN)C(=O)N[C@H]1CCCCNC(=O)CC[C@@H](C(N)=O)NC(=O)[C@H](CCCCN)NC(=O)[C@H](CCCCN)NC(=O)[C@H](CC(C)C)NC1=O` [Peptide 6, Ac-(cyclo-8,12))-[LKKLLKKKLKKE]-NH2] (Ac-LKKLLKKKLKKE-NH2; lactam 8-12), the IC50 in data set [2] was 16.6 µM; in data set [3] it was above 50 µM; in data set [4] (setting [5]), 18 µM.
Turning to “Ac-(N-(2-(n-butylamino)-2-oxoethyl)-(cyclo-8,12))-[LAKLLKAKAKAD]-NH2 (sidechain bridge or staple) [Peptide 2]”, the figures for the IC50 in data set [2] (setting [6]), in data set [3] (setting [7]) and in data set [4] (setting [8]) were above 50 µM, above 50 µM and 26.2 µM, respectively.
As to “Ac-(N-(2-(n-dodecylamino)-2-oxoethyl)-(cyclo-8,12))-[LAKLLKAKAKAD]-NH2 (sidechain bridge or staple) [Peptide 3]”, the IC50 is 5.9 µM in data set [2] (setting [6]), 9.8 µM in data set [3] (setting [7]) and 14.3 µM in data set [4] (setting [8]).
“Ac-(cyclo-8,12))-[LAKLLKAKAKAD]-NH2 (sidechain bridge or staple) [Peptide 4]”: the IC50 in data set [2] (setting [6]) was above 50 µM; in data set [3] (setting [7]), above 50 µM; in data set [4] (setting [8]) it was 20.9 µM.
With Ac-LAKLLKAKAKAD-NH2 [Peptide 1], the IC50 in data set [2] (setting [6]), in data set [3] (setting [7]) and in data set [4] (setting [8]) was above 50 µM in each case.
“Ac-LKKLLKKLLKKL-NH2 [Peptide 5, Ac-LKKLLKKLLKKL]”: the IC50 in data set [2] was 4.5 µM; in data set [3], above 50 µM; in data set [4] (setting [5]), 5.4 µM.

The record behind these values is PMC7070897 (Molecules, 2020).
